According to the CheMixHub viscosity set:

Assay: xn = mol fraction of the nth substance listed

C[Si]1(C)O[Si](C)(C)O[Si](C)(C)O[Si](C)(C)O1 + CCCCCCCCCCCCCC
viscosity [mPa·s], 103 kPa
Conditions	298.15 K	308.15 K	318.15 K
x1 = 0.05	1.944	1.605	1.347
x1 = 0.1	1.905	1.579	1.327
x1 = 0.15	1.881	1.56	1.312
x1 = 0.2	1.859	1.536	1.293
x1 = 0.25	1.853	1.523	1.282
x1 = 0.3	1.843	1.527	1.287
x1 = 0.35	1.833	1.52	1.281
x1 = 0.4	1.831	1.518	1.278
x1 = 0.45	1.82	1.509	1.274
x1 = 0.5	1.815	1.507	1.273
x1 = 0.55	1.817	1.51	1.275
x1 = 0.6	1.824	1.515	1.279
x1 = 0.65	1.831	1.522	1.285
x1 = 0.7	1.844	1.533	1.294
x1 = 0.7498	1.861	1.548	1.307
x1 = 0.8	1.887	1.571	1.324
x1 = 0.85	1.922	1.6	1.349
x1 = 0.8999	1.965	1.632	1.376
x1 = 0.95	2.014	1.672	1.406

CCNc1ccccc1 + CCCCCCCCCCO
viscosity [mPa·s], 101 kPa
Conditions	303.15 K	308.15 K	313.15 K
x1 = 0.0817	7.725	7.287	6.857
x1 = 0.1745	6.632	6.215	5.818
x1 = 0.2651	5.714	5.323	4.959
x1 = 0.3524	4.951	4.585	4.253
x1 = 0.4321	4.345	4.002	3.697
x1 = 0.5012	3.88	3.557	3.274
x1 = 0.5685	3.476	3.173	2.909
x1 = 0.6325	3.131	2.845	2.6
x1 = 0.6958	2.825	2.556	2.327
x1 = 0.7521	2.579	2.324	2.109
x1 = 0.8012	2.382	2.14	1.937
x1 = 0.8562	2.18	1.952	1.762
x1 = 0.9021	2.027	1.81	1.63

CCNc1ccccc1 + CCCCCCCCO
viscosity [mPa·s], 101 kPa
Conditions	303.15 K	308.15 K	313.15 K
x1 = 0.0802	5.589	4.869	3.822
x1 = 0.1625	5.024	4.381	3.478
x1 = 0.2541	4.463	3.898	3.134
x1 = 0.3514	3.937	3.445	2.808
x1 = 0.4421	3.504	3.071	2.537
x1 = 0.5012	3.248	2.851	2.375
x1 = 0.5741	2.96	2.601	2.19
x1 = 0.6214	2.787	2.451	2.078
x1 = 0.6952	2.538	2.235	1.915
x1 = 0.7412	2.395	2.112	1.822
x1 = 0.7954	2.238	1.975	1.717
x1 = 0.8412	2.114	1.867	1.635
x1 = 0.8921	1.984	1.756	1.549

CCNc1ccccc1 + CCCCCCCO
viscosity [mPa·s], 101 kPa
Conditions	303.15 K	308.15 K	313.15 K
x1 = 0.0812	4.393	4.271	4.154
x1 = 0.1589	4.051	3.907	3.774
x1 = 0.2456	3.705	3.541	3.394
x1 = 0.3612	3.288	3.108	2.948
x1 = 0.4304	3.063	2.875	2.711
x1 = 0.5023	2.847	2.653	2.486
x1 = 0.5744	2.646	2.449	2.278
x1 = 0.6415	2.474	2.273	2.103
x1 = 0.7125	2.304	2.102	1.932
x1 = 0.7754	2.166	1.963	1.794
x1 = 0.8214	2.071	1.867	1.7
x1 = 0.8741	1.966	1.765	1.6
x1 = 0.9214	1.878	1.678	1.516

COCC(C)OCC(C)OC (stereo not given) + CCCCCCCO
Conditions	viscosity [mPa·s]
298.15 K, 101 kPa, x1 = 0.4532	1.895

ClCCCl + CCCCCCCO
303.15 K, 101 kPa
Conditions	viscosity [mPa·s]
x2 = 0.1082	0.852
x2 = 0.1749	0.918
x2 = 0.3034	1.082
x2 = 0.456	1.415
x2 = 0.5496	1.752
x2 = 0.622	2.078
x2 = 0.7978	3.174
x2 = 0.8642	3.699
x2 = 0.9346	4.286

CCNc1ccccc1 + CCCCCCO
viscosity [mPa·s], 101 kPa
Conditions	303.15 K	308.15 K	313.15 K
x1 = 0.0815	3.513	3.35	3.189
x1 = 0.1812	3.243	3.069	2.9
x1 = 0.2501	3.07	2.889	2.719
x1 = 0.3121	2.922	2.736	2.565
x1 = 0.3956	2.737	2.546	2.374
x1 = 0.4652	2.594	2.399	2.227
x1 = 0.5285	2.47	2.273	2.101
x1 = 0.6124	2.318	2.119	1.947
x1 = 0.6758	2.21	2.01	1.84
x1 = 0.7415	2.105	1.904	1.735
x1 = 0.8012	2.014	1.813	1.647
x1 = 0.8652	1.922	1.722	1.557
x1 = 0.9114	1.857	1.659	1.496

ClCCCl + CCCCCCO
303.15 K, 101 kPa
Conditions	viscosity [mPa·s]
x1 = 0.1515	2.572
x1 = 0.302	1.864
x1 = 0.5095	1.235
x1 = 0.6031	1.047
x1 = 0.7397	0.9
x1 = 0.9017	0.73

COCC(C)OCC(C)OC (stereo not given) + CCCCCO
Conditions	viscosity [mPa·s]
298.15 K, 101 kPa, x1 = 0.4941	1.345

ClCCCl + CCCCCO
303.15 K, 101 kPa
Conditions	viscosity [mPa·s]
x1 = 0.1509	2.002
x1 = 0.3002	1.472
x1 = 0.4539	1.111
x1 = 0.6003	0.906
x1 = 0.7472	0.777
x1 = 0.8986	0.706

ClCCl + CCCCCO
298.15 K, 101 kPa
Conditions	viscosity [mPa·s]
x2 = 0.0966	0.7741
x2 = 0.194	1.097
x2 = 0.2921	1.391
x2 = 0.3909	1.669
x2 = 0.4905	1.93
x2 = 0.5908	2.182
x2 = 0.6919	2.437
x2 = 0.7938	2.688
x2 = 0.8965	2.927

ClCCl + CCCCN
viscosity [mPa·s], 101 kPa
Conditions	x2 = 0.102	x2 = 0.1371	x2 = 0.2306	x2 = 0.3081	x2 = 0.435	x2 = 0.5159	x2 = 0.5926	x2 = 0.6971	x2 = 0.8192	x2 = 0.9041
293.15 K	0.441	0.443	0.448	0.452	0.46	0.466	0.471	0.477	0.486	0.493
298.15 K	0.418	0.421	0.425	0.427	0.434	0.439	0.443	0.446	0.454	0.457
303.15 K	0.401	0.403	0.406	0.409	0.414	0.417	0.42	0.424	0.429	0.433
308.15 K	0.385	0.386	0.39	0.392	0.395	0.397	0.4	0.402	0.405	0.408

CCC(C)Br (stereo not given) + CCCCO
viscosity [mPa·s], 101.3 kPa
Conditions	x1 = 0.1031	x1 = 0.2031	x1 = 0.3016	x1 = 0.4044	x1 = 0.5054	x1 = 0.5983	x1 = 0.7019	x1 = 0.8026	x1 = 0.9
298.15 K	2.035	1.634	1.325	1.097	0.9278	0.8012	0.7037	0.6308	0.5835
313.15 K	1.426	1.174	0.9794	0.8345	0.7206	0.6389	0.5736	0.523	0.4876

CCNc1ccccc1 + CCCCO
303.15 K, 101 kPa
Conditions	viscosity [mPa·s]
x1 = 0.0702	2.203
x1 = 0.1296	2.187
x1 = 0.1901	2.173
x1 = 0.2568	2.154
x1 = 0.3204	2.132
x1 = 0.3725	2.114
x1 = 0.4414	2.085
x1 = 0.5136	2.047
x1 = 0.5841	2.007
x1 = 0.6525	1.97
x1 = 0.7225	1.926
x1 = 0.7954	1.873
x1 = 0.8741	1.819

ClCCCl + CCCCO
viscosity [mPa·s], 101 kPa
Conditions	x2 = 0.0969	x2 = 0.2052	x2 = 0.3178	x2 = 0.4683	x2 = 0.5618	x2 = 0.6768	x2 = 0.856
303.15 K	0.7121	0.7449	0.8081	0.9418	1.062	1.272	1.744
313.15 K	0.6205	0.6427	0.692	0.7892	0.8734	1.036	1.378
323.15 K	0.5584	0.571	0.6061	0.6791	0.7447	0.8711	1.123

ClCCl + CCCCO
303.15 K, 101.3 kPa
Conditions	viscosity [mPa·s]
x2 = 0.036	0.4023
x2 = 0.0601	0.4082
x2 = 0.1127	0.4291
x2 = 0.1672	0.4596
x2 = 0.3142	0.5767
x2 = 0.4391	0.7209
x2 = 0.5585	0.9132
x2 = 0.6635	1.143
x2 = 0.7658	1.428
x2 = 0.8429	1.684
x2 = 0.9	1.89
x2 = 0.9566	2.105

CC(=O)O + CCCCOC(C)=O
viscosity [mPa·s], 101 kPa
Conditions	298.15 K	313.15 K
x2 = 0.1025	1.003	0.811
x2 = 0.2035	0.947	0.767
x2 = 0.2989	0.887	0.724
x2 = 0.3998	0.842	0.685
x2 = 0.4907	0.811	0.671
x2 = 0.6449	0.77	0.63
x2 = 0.8015	0.729	0.599
x2 = 0.8705	0.726	0.589
x2 = 0.8886	0.723	0.592
x2 = 0.9096	0.712	0.583
x2 = 0.9315	0.698	0.58
x2 = 0.9427	0.698	0.58
x2 = 0.9605	0.696	0.574
x2 = 0.9779	0.686	0.563

CCNc1ccccc1 + CCCCOCCO
viscosity [mPa·s], 101.3 kPa
Conditions	x2 = 0.1017	x2 = 0.2027	x2 = 0.3026	x2 = 0.398	x2 = 0.5004	x2 = 0.5947	x2 = 0.701	x2 = 0.7971	x2 = 0.8933
298 K	2.077	2.172	2.259	2.361	2.486	2.573	2.686	2.758	2.786
303 K	1.774	1.855	1.929	2.039	2.14	2.214	2.313	2.38	2.404
308 K	1.59	1.662	1.725	1.801	1.889	1.961	2.048	2.111	2.145
313 K	1.43	1.498	1.537	1.615	1.693	1.746	1.824	1.883	1.91
318 K	1.298	1.358	1.383	1.443	1.51	1.552	1.616	1.674	1.696

ClCCl + CCCCOCCO
298.15 K, 101.3 kPa
Conditions	viscosity [mPa·s]
x1 = 0.0185	2.77
x2 = 0.0035	0.408
x2 = 0.0112	0.413
x2 = 0.0303	0.43
x2 = 0.0521	0.451
x2 = 0.1008	0.503
x2 = 0.1533	0.578
x2 = 0.2175	0.671
x2 = 0.293	0.807
x2 = 0.362	0.943
x2 = 0.4346	1.11
x2 = 0.5707	1.482
x2 = 0.6642	1.753
x2 = 0.7875	2.148
x2 = 0.9049	2.525

ClCCl + CCCCn1cc[n+](C)c1.F[B-](F)(F)F
Conditions	viscosity [mPa·s]
298.15 K, 101 kPa, x1 = 0.1	84.5

ClCCl + CCCCn1cc[n+](C)c1.F[P-](F)(F)(F)(F)F
298.15 K, 101 kPa
Conditions	viscosity [mPa·s]
x1 = 0.2451	88.7
x1 = 0.6462	9.51
